What was measured:
[1] = system: Guanarito pseudotyped virus; test: organism not typed; format: cell-based; conditions: read-out: Activity (EC50 in μM vs. pseudotyped virus) Guanarito
[2] = system: Sabiá pseudotyped virus; test: organism not typed; format: cell-based; conditions: read-out: Activity (EC50 in μM vs. pseudotyped virus) Sabiá
[3] = system: Lassa GP-pseudotyped-virus; test: microbe, parasite or virus in culture; format: cell-based, Lassa fever virus; conditions: for EC50: Human immunodeficiency virus 1, read-out: Activity (EC50 in μM vs. pseudotyped virus) Lassa
[4] = system: Junín pseudotyped virus; test: organism not typed; format: cell-based; conditions: read-out: Activity (EC50 in μM vs. pseudotyped virus) Junín
[5] = system: VSVg pseudotyped virus; test: organism not typed; format: cell-based; conditions: read-out: Activity (EC50 in μM vs. pseudotyped virus) VSVg
[6] = system: Machupo pseudotyped virus; test: organism not typed; format: cell-based; conditions: read-out: Activity (EC50 in μM vs. pseudotyped virus) Machupo

SMILES	EC50 [1] [µM]	EC50 [2] [µM]	EC50 value against Lassa GP-pseudotyped-virus [3]	EC50 [3] [µM]	EC50 [4] [µM]	EC50 [5] [µM]	EC50 [6] [µM]
CCOc1ccc(-n2cnc3cc(/C=C\c4ccc(CC)cc4)ccc32)cc1 [Compound 2, 1-(4-ethoxyphenyl)-5-[(Z)-2-(4-ethylphenyl)vinyl]benzimidazole]	< 1	< 1	submicromolar	< 1	< 1	10 to 50	< 1
CCOc1ccc(-n2cnc3cc(CCc4ccc(CC)cc4)ccc32)cc1 [Compound 27, 1-(4-ethoxyphenyl)-5-[2-(4-ethylphenyl)-ethyl]benzimidazole]	< 1	< 1		< 1	< 1	> 50	< 1
COc1ccc(-n2cnc3cc(OCc4ccc(C(C)C)cc4)cnc32)cc1 [Compound 32, 6-[(4-isopropyl-phenyl)methoxy]-3-(4-methoxyphenyl)imidazo[4,5-b]pyridine]		< 1		< 1	< 1	10 to 50	< 1
CCOc1ccc(-n2cnc3cc(OCc4ccc(CC)cc4)cnc32)cc1 [Compound 31, 3-(4-ethoxyphenyl)-6-[(4-ethylphenyl)-methoxy]imidazo[4,5-b]pyridine]	< 1	< 1		< 1	< 1	10 to 50	< 1
CCc1ccc(/C=C\c2ccc3c(c2)ncn3-c2ccc(OC(C)C)cc2)cc1 [Compound 9, 5-[(Z)-2-(4-ethylphenyl)vinyl]-1-(4-isopropoxyphenyl)-benzimidazole]		< 1		< 1	< 1	10 to 50	< 1
CCOc1ccc(-n2cnc3cc(/C=C\c4ccc(C(C)(C)O)cc4)ccc32)cc1 [Compound 61, 2-[4-[(Z)-2-[1-(4-ethoxyphenyl)benzimidazol-5-yl]vinyl]phenyl]propan-2-ol]		< 1		< 1	< 1	10 to 50	< 1
CCOc1ccc(-n2cnc3cc(SCc4ccc(CC)cc4)ccc32)cc1 [Compound 33, 1-(4-ethoxyphenyl)-5-[(4-ethylphenyl)-methylsulfanyl]benzimidazole]	< 1	< 1		< 1	< 1	10 to 50	< 1
COc1ccc(-n2cnc3cc(/C=C\c4ccc(C(C)C)cc4)cnc32)cc1 [Compound 24, 6-[(Z)-2-(4-isopropylphenyl)vinyl]-3-(4-methoxyphenyl)imidazo[4,5-b]pyridine]		< 1		< 1	< 1	10 to 50	< 1
CC(C)Oc1ccc(-n2cnc3cc(/C=C\c4ccc(C(C)(C)C)cc4)ccc32)cc1 [Compound 7, 5-[(Z)-2-(4-tert-butylphenyl)vinyl]-1-(4-isopropoxyphenyl)-benzimidazole]		< 1		< 1	< 1	10 to 50	< 1
CCOc1ccc(-n2cnc3cc(/C=C\c4ccc(C(C)(C)C)cc4)ccc32)cc1 [Compound 5, 5-[(Z)-2-(4-tert-butylphenyl)vinyl]-1-(4-ethoxyphenyl)benzimidazole]		< 1		< 1	< 1	10 to 50	< 1

From patent US10000486B2 (priority 2012, dated 2018)
